# No end group written: not given here.
# Assays:
# [1] = system: Pseudomonas aeruginosa O1 (PAO1); test: Antimicrobial killing of Pseudomonas aeruginosa PAO1 by synthetic mature β-defensin peptides; assay type: cell-based; settings: for bacterial killing after TCEP reduction: reduced peptide (TCEP), 50 µg/ml peptide, PAO1, 3 hours, compared with oxidised form
# Excerpt: The DefbΔ9/DefbΔ9 mice homozygous for the deletion have no obvious gross phenotype compared to littermate controls after 8 generations of backcrossing to C57Bl/6. No change in size, weight or appearance is apparent, except mice carrying the mutant allele have paler tails by virtue of the Agouti transgene included in the MICER vector (data not shown). β-defensins are classically known as antimicrobial peptides, so we tested the mature peptides in vitro against a Gram-negative bacterium (Pseudomonas aeruginosa, PAO1). […] Despite deleting the expression of these antimicrobials from the homozygous mice, there is no indication that the mutant mice have an increased inflammatory profile under normal animal housing conditions. There is no elevation in levels of TNF-α or IL-6 or type I interferon in sera from mutant versus wild-type mice (Figure 1D).
# Supplementary file pgen.1003826.s003.tif: Figure S3 Level of antimicrobial killing against Pseudomonas aeruginosa O1 (PAO1) by the reduced and oxidized peptides. β-defensins with the mature peptide sequences (as shown in Table 1) were purchased from Almac Sciences (Scotland) Limited in an oxidised form. They were tested for their ability to kill PAO1 in 3 hours at various concentrations of peptide. […] TCEP alone had no effect on bacterial survival (data not shown). […] (TIF) Click here for additional data file.
# [2] = system: wild-type cauda sperm; test: A23187-induced acrosome reaction of wild-type sperm, Coomassie G250 stain; assay type: cell-based, mouse; settings: wild-type (+/+) sperm treated with A23187, T90 minutes, 157 of 293 sperm, untreated control 14%
# Protocol: (§1) We treated sperm from wild-type littermates (+/+) with A23187 to release calcium and induce AR, and examined their ultrastructure by TEM at the T90 minutes time point (Figure S4).
# Cauda sperm were isolated in modified Tyrode's medium, fixed in 4% formalin for 15 mins. Sperm were spun down (1000× g 5 mins) then washed once in 0.1 M ammonium acetate (pH 9.0) and resuspended in a final volume of approximately 50 µl. An aliquot of 20 µl was smeared on glass slide, allowed to air dry then stained for 2 mins with a solution of 0.22% Coomassie blue G250 (wt/v) in 50% methanol (v/v) and 10% acetic acid (v/v). Slides were washed 3 times in distilled water, air-dried and mounted in glycerol. Acrosome integrity of at least 150 sperm per animal was assessed by the presence or absence of an intense blue stain on the anterior sperm head (mean ± SD; n = 3 pairs).
# [3] = system: wild-type cauda sperm; test: TEM of microtubule structure in tails of A23187-treated wild-type sperm; assay type: cell-based, mouse; settings: wild-type cauda sperm treated with A23187 (1 µM in the Figure S4 legend), T90 minutes, 101/195 tails in focus, control 3%
# Protocol: as §1
# Epididymides and decapsulated testis were fixed with 2% paraformaldehyde (PFA), 2.5% glutaraldehyde in 0.1M sodium cacodylate buffer + 0.04% CaCl2 for 30 mins at room temperature. The tissues were cut roughly into 1 mm cubes and further fixed overnight at 4°C. Fixed cells were rinsed in 0.1M sodium cacodylate buffer + 0.4% CaCl2, post-fixed in 1% osmium tetroxide (OsO4, Agar Scientific) for one hour, and dehydrated in sequential steps of acetone (25%, 50%, 75% and 100% twice) prior to impregnation in increasing concentrations (25%, 50%, 75%) of resin (TAAB Lab Equipment) in acetone followed by 100% resin for 3 times, placed in moulds and polymerised at 60°C for 24 hrs. Ultrathin sections of 70 nm were subsequently cut using a diamond knife on a Leica EM UC7 ultramicrotome. Sections were stretched with chloroform to eliminate compression and mounted on Pioloform filmed copper grids prior to staining with 1% aqueous uranyl acetate and lead citrate (Leica). They were viewed on a Philips CM100 Compustage (FEI) Transmission Electron Microscope with images collected using an AMT CCD camera (Deben). […]
# [4] = system: sperm; settings: 10 µM A23187; cited from earlier work
# Excerpt: We sought to understand why sperm from the DefbΔ9/DefbΔ9 have this precocious capacitation and increased spontaneous AR. Sperm require an increase in intracellular calcium, which causes hyperactivation and allows progression to the AR. Mice deleted for any of the components of the calcium CatSper (cation channels of sperm) channel are infertile due to their lack of ability to transport calcium into the cell, resulting in an inability to undergo capacitation, hyperactivation and prepare sperm for the AR [32]. Conversely, sperm exposed to a ten-fold increase in cauda epididymal calcium concent ...
molecule,measurement,setting,value
"O=C(O)CCP(CCC(=O)O)CCC(=O)O [TCEP, Tris (2-carboxyethyl) phosphine]",effect on bacterial survival,"[1]; TCEP alone, without peptide, data not shown",no effect
CNc1ccc2oc(C[C@H]3O[C@@]4(CC[C@H]3C)O[C@H]([C@H](C)C(=O)c3ccc[nH]3)[C@H](C)C[C@H]4C)nc2c1C(=O)O [A23187],acrosome reacted sperm,[2],53%
same,sperm with microtubule disruption (abnormal tail score),[3],52%
same,acrosome reaction,[4],will undergo the AR
same,sperm motility,[4],immotile
"HPGTFHVRIKCMPKMTAVFGDNCSFYSSMGDLCNNTKSVCCMVPVRMDNI (disulfide (positions not given here)) [Defb50, mature synthetic mouse β-defensin peptide, missing the second cysteine of the motif]",antimicrobial activity in either oxidised or reduced form,"[1]; PAO1, Figure S3",active antimicrobials
same,"antimicrobial activity, oxidised form","[1]; oxidised peptide, PAO1, Figure S3",poor antimicrobial activity
same,bacterial killing after TCEP reduction,[1],improves
"FDEKCSRVNGRCTAS-CLKNEELVALC-QKNLKCCVTVQPCGKSKSNQSDEGSGHMGTWG (disulfide) [Defb15, mature synthetic mouse β-defensin peptide]",bacterial killing after TCEP reduction,[1],unremarkable

# — article PMC3812073, “Partial Deletion of Chromosome 8 β-defensin Cluster Confers Sperm Dysfunction and Infertility in Male Mice” (PLoS Genetics, 2013)
